Assay results from patent US20130064831A1, “IMMUNOTHERAPEUTIC DOSING REGIMENS AND COMBINATIONS THEREOF” (Bristol-Myers Squibb Company, priority 2010, published 2013).

Tests used:
[1] = tested on: ovarian or prostate cancer; conditions: some patients with ovarian or prostate cancer; cited from earlier work
[2] = tested on: NSCLC Subjects; assay: CA184041 phase II trial: safety, exposure and discontinuation; conditions: in vivo
Experimental: Blinded Study Drug: Ipilimumab 10 mg/kg or matched placebo administered as a single dose intravenously over 90 minutes every 3 weeks (up to 6 doses) as part of induction. Subjects may receive additional maintenance Ipilimumab/placebo at a dose of 10 mg/kg and administered intravenously over 90 minutes every 12 weeks starting 24 weeks after the first Ipilimumab/placebo dose. Dose reductions were not permitted. […] Dose modifications (reductions as well as delays) are as per product label. PARAPLATIN®: AUC=6 administered as a single dose intravenously over 30 minutes every 3 weeks (up to 6 doses). Dose modifications (reductions as well as delays) are as per product label. Treatment with blinded Ipilimumab (active or placebo) proceeded until immune-related tumor progression as defined by the irRC is observed or intolerable toxicity occurs.
Safety was summarized and listed for all treated subjects using the National Cancer Institute (NCI) Common Terminology Criteria for Adverse Events (CTCAE) version 3.0 by treatment arm for each tumor type. All treatment emergent AEs, drug-related treatment emergent AEs, serious AEs and drug-related SAEs were tabulated using worst grade per NCI CTCAE v3.0 criteria by system, organ, class, and preferred term. The listings by subject were produced for all deaths, all SAEs and all AEs leading to discontinuation of study drug. […]

[3] = tested on: melanoma; conditions: cited from earlier work

In the case of “Ipilimumab: fully human IgG1 anti-CTLA-4 monoclonal antibody, CAS 477202-00-9, light/heavy chain variable regions SEQ ID NO:1 and 2”, the serum tumor markers [1] is given as “reductions of serum tumor markers”, the “potentiation of chemotherapy-related toxicity” value [2] is given as “did not potentiate chemotherapy-related toxicity” and the tumor regressions ([3]; initial studies in patients with melanoma) is given as “objective durable tumor regressions”. For the same substance, the antitumor activity ([3]; patients with advanced melanoma) was “demonstrated antitumor activity”.
